US6204293A, “Inhibitors of protein isoprenyl transferases” (University of Pittsburgh, priority 1998, dated 2001)
Where a name gives a salt, the structure may show the parent alone. Read-outs that look alike come from different tables or passages of the source. Each block holds one compound with its values, some of them ahead of it.

Biological target: T1, Rat brain protein farnesyltransferase (Rattus norvegicus, UniProt Q02293+Q04631)
T1 construct: Rat brain protein farnesyltransferase activity is measured; from tissue; host or cells: rat brain
T1 sequence (Q02293 whole entry, one chain of several): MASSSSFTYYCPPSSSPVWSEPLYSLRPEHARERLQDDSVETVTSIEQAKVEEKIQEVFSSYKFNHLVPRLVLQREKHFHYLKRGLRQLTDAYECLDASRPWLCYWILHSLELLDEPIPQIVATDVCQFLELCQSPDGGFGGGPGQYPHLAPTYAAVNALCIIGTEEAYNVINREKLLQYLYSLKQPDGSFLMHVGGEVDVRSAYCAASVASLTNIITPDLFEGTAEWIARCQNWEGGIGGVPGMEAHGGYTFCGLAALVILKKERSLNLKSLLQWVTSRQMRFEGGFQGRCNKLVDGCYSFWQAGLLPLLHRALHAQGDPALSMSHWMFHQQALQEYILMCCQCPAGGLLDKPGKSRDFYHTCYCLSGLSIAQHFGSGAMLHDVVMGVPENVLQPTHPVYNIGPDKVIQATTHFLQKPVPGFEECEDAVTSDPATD
Assay: % inhibition of farnesylation, scintillation proximity assay with biotin-K Ras B fragment
Type: biochemical
Settings: for % inhibition at 1 × 10^-8 M: Table 4; for % inhibition at 1 × 10^-6 M: Table 2
Procedure, shortened: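 Scintillation proximity read-out of farnesylation, using a biotinylated K Ras B fragment (0.1 mM final) in place of biotin-lamin. Enzyme purified from rat brain; results given as % inhibition.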

[1] = read-out: % inhibition at 0.1 μM (*), Table 6, * footnote 0.1 μM (title: 0.1 mM)
[2] = read-out: % inhibition at 1 × 10^-7 M, Table 3, 1 × 10^-7 M
[3] = read-out: % inhibition at 1 × 10^-7 M

SMILES: CSCC[C@H](NC(=O)c1ccc(CSCCc2ccccc2)cc1-c1ccccc1C)C(=O)O [Example 562, N-[4-(2-phenyl)ethylthiomethyl-2-(2-methylphenyl)benzoyl]methionine, lithium salt]
inhibition at 0.1 µM [3]: 95%

SMILES: CCSCC(CC1CCCCC1)NCc1cc(-c2ccccc2C)c(C(=O)N[C@@H](CCSC)C(=O)O)cc1OC (some centres unmarked) [Example 1337]
% inhibition at 0.01 μM (**) (Table 6, ** footnote 0.01 μM (title: 0.01 mM)): 83%

SMILES: CSCC[C@H](NC(=O)c1ccc(COCCc2ccc3ccccc3c2)cc1-c1ccccc1C)C(=O)O [Example 593, N-[4-(2-naphth-2-ylethoxymethyl)-2-(2-methylphenyl)benzoyl]methionine lithium salt]
inhibition at 0.1 µM [3]: 86%

SMILES: CSCC[C@H](NC(=O)c1ccc(CN2C(=O)OC[C@@H]2CC2CCCCC2)cc1-c1ccccc1C)C(=O)O [Example 349]
% inhibition at 1 × 10^-6 M: 99%

SMILES: CSCC[C@H](NC(=O)c1ccc(CNc2ccccc2N2CCCCC2)cc1-c1ccccc1)C(=O)O [Example 673]
% inhibition at 1 × 10^-6 M: 59%

SMILES: CSCC[C@H](NC(=O)c1ccc(CCc2ccccc2-c2ccccc2)cc1-c1ccccc1C)C(=O)[O-].[Li+] [Example 452]
% inhibition at 1 × 10^-6 M: 96%

SMILES: CSCC[C@H](NC(=O)c1ccc(CN2CCN(C(=O)OC(C)(C)C)CC2)cc1-c1ccccc1C)C(=O)O [Example 866]
% inhibition at 1 × 10^-6 M: 62%

SMILES: CC[C@H](CC1CCCCC1)NCc1ccc(C(=O)N[C@@H](CCSC)C(=O)O)c(-c2ccccc2C)c1 [Example 614]
% inhibition at 1 × 10^-8 M: 92%

SMILES: CSCC[C@H](NC(=O)c1ccc(COC(Cc2ccccc2)Cc2ccccc2)cc1-c1ccccc1C)C(=O)O [Example 522, N-[4-(1,3-diphenylpropan-2-yl)oxymethyl-2-(2-methylphenyl)benzoyl]methionine lithium salt]
inhibition at 0.1 µM [3]: 93%

SMILES: CSCC[C@H](NC(=O)c1ccc(CNCCSc2ccccc2)cc1-c1ccccc1)C(=O)O [Example 667]
% inhibition at 1 × 10^-6 M: 83%

SMILES: CSCC[C@H](NC(=O)c1ccc(CCC(=O)OCC2CCCCC2)cc1-c1ccccc1C)C(=O)O [Example 1153, N-[4-(cyclohexylmethoxycarbonylethyl)-2-(2-methylphenyl)benzoyl]methionine]
inhibition at 0.1 µM [1]: 89%

SMILES: CCCCS(=O)(=O)N(Cc1ccc(C(=O)N[C@@H](CCSC)C(=O)O)c(-c2ccccc2C)c1)CC1CCCCC1 [Example 996]
% inhibition at 1 × 10^-8 M: 80%

SMILES: CSCC[C@H](NC(=O)c1ccc(NC(=O)CCN)cc1-c1ccccc1)C(=O)O [Example 750]
% inhibition at 1 × 10^-5 M (Table 1, 1 × 10^-5 M): 44%

More lines, now with the values ahead:

inhibition at 0.1 µM [1]: 86%
SMILES: CSCC[C@H](NC(=O)c1ccc(COCc2ccc(CO)cc2)cc1-c1ccccc1C)C(=O)O [Example 1045, N-[4-(4-hydroxymethylbenzyloxymethyl)-2-(2-methylphenyl)benzoyl]methionine,lithium salt]

inhibition at 0.1 µM [2]: 90%
SMILES: CSCC[C@H](NC(=O)c1ccc(COCc2cccc(N(C)C)c2)cc1-c1ccccc1C)C(=O)O [Example 941, N-[4-(3-N,N-dimethylaminobenzyloxymethyl)-2-(2-methylphenyl)benzoyl]methionine lithium salt]

% inhibition at 1 × 10^-8 M: 91%
SMILES: CSCC[C@H](NC(=O)c1ccc(CN(Cc2ccc3c(c2)OCO3)c2cncnc2)cc1-c1ccccc1C)C(=O)O [Example 837]

inhibition at 0.01 µM (read-out: % inhibition at 0.01 μM (**), Table 6, ** footnote 0.01 μM (title: 0.01 mM)): 85%
SMILES: CSCC[C@H](NC(=O)c1ccc(CO[C@H](COC(C)(C)C)CC2CCCCC2)cc1-c1ccccc1C)C(=O)O [Example 1307]

% inhibition at 1 × 10^-7 M (Table 3, 1 × 10^-7 M): 89%
SMILES: CCCCN(CCCC)C(=O)CN(C)Cc1ccc(C(=O)N[C@@H](CCSC)C(=O)O)c(-c2ccccc2C)c1 [Example 913]

inhibition at 0.1 µM [2]: 95%
SMILES: CSCC[C@H](NC(=O)c1ccc(COCc2cnc(-c3ccc(F)cc3)s2)cc1-c1ccccc1C)C(=O)O [Example 900, N-[4-(2-(4-fluorophenylthiazol-5-ylmethoxymethyl)-2-(2-methylphenyl)benzoyl]methioninelithium salt]

% inhibition at 1 × 10^-6 M: 54%
SMILES: CSCC[C@H](NC(=O)c1ccc(CN(C(C)C)C(C)(C)Cc2ccccc2)cc1-c1ccccc1C)C(=O)O [Example 317]
